Publication PMC11435065, “Inhibition of P-Glycoprotein Asymmetrically Alters the In Vivo Exposure Profile of SGC003F: A Novel Guanylate Cyclase Stimulator” (Pharmaceuticals, 2024)
Several values for one entry are separate records, joined by “and”; a condition that tells them apart may be missing. Equal values may be shown once. Read-outs that look alike come from different tables or passages of the source.

Tests used:
[1] = Bidirectional transport across Caco-2 monolayer cells; format: in vitro ADME; conditions: human, Caco-2 cells, read-out: ER value (efflux ratio)
Experimental: LLC-PK1-MDR1, LLC-PK1-MOCK, and Caco-2 cells were seeded in 24-well Transwell cell plates at optimized densities. The medium was changed every other day for the LLC-PK1 cells and every day for the Caco-2 cells. The LLC-PK1 cells were cultured continuously for 4–7 days, while the Caco-2 cells were cultured continuously for 28–35 days in preparation for transport experiments. Prior to the experiment, TEER (transepithelial electrical resistance) values were measured using a cell resistance meter. For electrical measurements, two electrodes were used, with one electrode placed in the upper compartment and the other in the lower compartment and the electrodes were separated by the cellular monolayer. The measurement procedure included measuring the blank resistance (Rblank) of the semipermeable membrane only (without cells) and measuring the resistance across the cell layer on the semipermeable membrane (Rtotal). TEER values were achieved by calculating as TEER = (Rtotal − Rblank) × Marea in the unit of Ω·cm^2. […]
The apparent permeability rate value (Papp) of the monolayer cells was calculated according to Equation (5) Papp = (dQ/dt)/(A × C0)(5) where dQ/dt is the transport rate (µmol·s^−1); A is the insert surface area (0.33 cm^2); C0 is the initial concentration of the compound (µM).
Efflux rate (ER) was calculated according to Equation (6):ER = Papp B-A/PappA-B(6)

[2] = Urinary and fecal cumulative excretion of SGC003F in rats with or without tariquidar; format: in vivo; conditions: rat, SGC003F p.o. 1 mg/kg; for dose excreted: male, SD, urine and faeces
Experimental: In total, 18 male SD rats were randomly divided into three groups, with 6 rats in each group. Group I: SGC003F (p.o., 1 mg/kg) + blank vehicle (control group); Group Ⅱ: SGC003F (p.o., 1 mg/kg) + tariquidar (i.v., 7.5 mg/kg); Group III: SGC003F (p.o., 1 mg/kg) + tariquidar (p.o., 15 mg/kg). The rats were fasted for 12 h before oral administration. After administration, the rats were placed immediately in a metabolic cage and resumed feeding for 2 h. Urine and fecal samples were collected at 0–4, 4–8, 8–12, 12–24, 24–36, 36–48, 48–72, 72–96, and 96–120 h after administration. Fecal samples were homogenized with acetonitrile at a ratio of 1:4 (w/v) and stored at −40 °C for analysis.

[3] = single, within 120 h, parent drug
[4] = tariquidar i.v. 7.5 mg/kg, 120 h
[5] = tariquidar p.o. 15 mg/kg, 120 h
[6] = with tariquidar i.v. 7.5 mg/kg, 120 h
[7] = with tariquidar p.o. 15 mg/kg, 120 h

efflux ratio at 2 h, 2 µM [1]: 7.2
dose excreted ([2]; oral, with tariquidar i.v. 7.5 mg/kg, 120 h, read-out: U + F (total urinary and fecal recovery)): 37.9 ± 5.99%
dose excreted ([2]; oral, with tariquidar p.o. 15 mg/kg, 120 h, read-out: U + F (total urinary and fecal recovery)): 36.7 ± 3.36%
dose excreted ([2]; po, 1 mg/kg, single, within 120 h, read-out: U + F (total urinary and fecal recovery of parent drug)): 71.5 ± 15.1%
Total cumulative urinary and fecal excretion relative to control group ([2]; after co-administration of tariquidar): 50%
F (cumulative fecal excretion) [2, 3]: 59.5 ± 14.4%
U (cumulative urinary excretion) [2, 3]: 11.9 ± 1.36%
F (fecal), Ratio 1 (with Tar (i.v.)/single) [2, 4]: 0.32
U + F, Ratio 1 (with Tar (i.v.)/single) [2, 4]: 0.53
U, Ratio 1 (with Tar (i.v.)/single) [2, 4]: 1.56
F (fecal), Ratio 2 (with Tar (p.o.)/single) [2, 5]: 0.19
U + F, Ratio 2 (with Tar (p.o.)/single) [2, 5]: 0.51
U, Ratio 2 (with Tar (p.o.)/single) [2, 5]: 2.13
F (cumulative fecal excretion) [2, 6]: 19.3% and 19.3 ± 2.31 %
U (cumulative urinary excretion) [2, 6]: 18.6% and 18.6 ± 4.37%
F (cumulative fecal excretion) [2, 7]: 11.5% and 11.5 ± 2.61 %
U (cumulative urinary excretion) [2, 7]: 25.3% and 25.3 ± 1.62%
SMILES: COC(=O)Nc1c(N)nc(-c2nn(Cc3sccc3F)c3ncc(F)cc23)nc1N [SGC003F]
